The results in this text go back to US9040717B2, “Pyrazole-amide compounds and pharmaceutical use thereof” (JAPAN TOBACCO INC., priority 2013, dated 2015).

Structures are written as SMILES.

This data set concerns the target hERG (Homo sapiens (Human), UniProt Q12809). In words: hERG whole cell patch clamp test. In kind it is cell-based. Conditions: human, hERG-transfected HEK293 cells, pH 7.4; whole cell patch clamp. The procedure: Using human ether-a-go-go related gene (hERG)-transfected HEK293 cells (Cytomyx Limited), an influence on hERG current was examined according to the whole cell patch clamp technique. The hERG-transfected HEK293 cells were passaged using a CO2 incubator (BNA-111, TABAI ESPEC CORP.) under the set conditions of 37° C., 5% CO2, saturated humidity. Culture containers used were Collagen Type I Coated 75 cm^2 flask (4123-010, AGC TECHNO GLASS CO., Ltd.) and Collagen Type I Coated 35 mm culture dish (4000-010, AGC TECHNO GLASS CO., Ltd.). The culture medium used was E-MEM (Eagle Minimum Essential Medium (Earle's Salts, Nikken biomedical laboratory) added with 10% FCS (Fetal calf serum, BioWest, L.L.C.) and 1% MEM Non-Essential Amino Acids Solution (NEAA, Invitrogen Corporation). Geneticin for the selection of hERG gene expressing cells was added thereto to a concentration of 400 μg/mL. As the cells for the measurement, 3×10^4 hERG-transfected HEK293 cells were plated on a 35 mm culture dish 4 to 7 days before measurement of the hERG current. The culture dish produced for the measurement contained the above-mentioned culture medium without geneticin (Invitrogen Corporation).
The highest evaluation concentration of each compound was determined from the highest concentration at which precipitation was not found in the standard extracellular fluid (NaCl: 140 mmol/L, KCl: 2.5 mmol/L, MgCl2:2 mmol/L, CaCl2: 2 mmol/L, HEPES: 10 mmol/L, glucose: 10 mmol/L (adjusted to pH 7.4 with Tris-base)). As the application method, each solution to be applied was ejected from a Y-tube having a tip diameter of about 0.25 mm, which was adjacent (about 2 mm) to the cells, and applied to the cells. The ejection rate was about 0.4 mL/min.
The experiment was performed at room temperature under a phase contrast microscope. The 35 mm culture dish plated with the cells was set on a measurement apparatus, and the standard extracellular fluid was continuously applied to the cells from the Y-tube. A glass electrode for the measurement was filled with an intracellular fluid (Potassium Gluconate: 130 mmol/L, KCl: 20 mmol/L, MgCl2: 1 mmol/L, ATP-Mg: 5 mmol/L, EGTA: 3.5 mmol/L, HEPES: 10 mmol/L (adjusted to pH 7.2 with Tris-base)). A conventional whole cell patch clamp method was applied to the cells, and the maintenance electric potential was set to −80 mV. Under a fixed electric potential, the whole cell current was amplified by an amplifier for patch clamp (AXOPATCH-200B, Axon Instruments, Inc.), and the data was loaded into a computer (IMC-P642400, Intermedical Co., Ltd.) using a data acquisition analysis software (pCLAMP 9.2, Axon Instruments, Inc.).
The measurement of the hERG current was performed in the following two steps. In both cases, the hERG current was initiated by giving a command potential (maintenance electric potential −80 mV, prepulse +20 mV, 1.5 sec, test-pulse −50 mV, 1.5 sec).
Step (1): The above-mentioned command potential was given at 0.1 Hz for 2 min.
Step (2): The above-mentioned command potential was subjected to P/3 subtraction of pCLAMP 9.2 to remove leak current. This was repeated three times and an average thereof was taken as hERG current.
Subsequent to step (1), Step (2) was performed (about 3 min), and the maximum tail current obtained by applying a test-pulse to the hERG current obtained by the method of step (2) was taken as hERG current value. Hereafter, the operations of (1) and (2) were alternately repeated until completion of the experiment and the hERG current value was measured.
Stable hERG current value was recorded three times (about 10 min), and the standard extracellular fluid was instantaneously exchanged with each application fluid. The hERG current value was measured three times (about 10 min) in the same manner during perfusion of the application fluid, and the current value obtained by the 3rd measurement was taken as hERG current value after perfusion of the application fluid. […]

Chain of hERG (Q12809 whole entry): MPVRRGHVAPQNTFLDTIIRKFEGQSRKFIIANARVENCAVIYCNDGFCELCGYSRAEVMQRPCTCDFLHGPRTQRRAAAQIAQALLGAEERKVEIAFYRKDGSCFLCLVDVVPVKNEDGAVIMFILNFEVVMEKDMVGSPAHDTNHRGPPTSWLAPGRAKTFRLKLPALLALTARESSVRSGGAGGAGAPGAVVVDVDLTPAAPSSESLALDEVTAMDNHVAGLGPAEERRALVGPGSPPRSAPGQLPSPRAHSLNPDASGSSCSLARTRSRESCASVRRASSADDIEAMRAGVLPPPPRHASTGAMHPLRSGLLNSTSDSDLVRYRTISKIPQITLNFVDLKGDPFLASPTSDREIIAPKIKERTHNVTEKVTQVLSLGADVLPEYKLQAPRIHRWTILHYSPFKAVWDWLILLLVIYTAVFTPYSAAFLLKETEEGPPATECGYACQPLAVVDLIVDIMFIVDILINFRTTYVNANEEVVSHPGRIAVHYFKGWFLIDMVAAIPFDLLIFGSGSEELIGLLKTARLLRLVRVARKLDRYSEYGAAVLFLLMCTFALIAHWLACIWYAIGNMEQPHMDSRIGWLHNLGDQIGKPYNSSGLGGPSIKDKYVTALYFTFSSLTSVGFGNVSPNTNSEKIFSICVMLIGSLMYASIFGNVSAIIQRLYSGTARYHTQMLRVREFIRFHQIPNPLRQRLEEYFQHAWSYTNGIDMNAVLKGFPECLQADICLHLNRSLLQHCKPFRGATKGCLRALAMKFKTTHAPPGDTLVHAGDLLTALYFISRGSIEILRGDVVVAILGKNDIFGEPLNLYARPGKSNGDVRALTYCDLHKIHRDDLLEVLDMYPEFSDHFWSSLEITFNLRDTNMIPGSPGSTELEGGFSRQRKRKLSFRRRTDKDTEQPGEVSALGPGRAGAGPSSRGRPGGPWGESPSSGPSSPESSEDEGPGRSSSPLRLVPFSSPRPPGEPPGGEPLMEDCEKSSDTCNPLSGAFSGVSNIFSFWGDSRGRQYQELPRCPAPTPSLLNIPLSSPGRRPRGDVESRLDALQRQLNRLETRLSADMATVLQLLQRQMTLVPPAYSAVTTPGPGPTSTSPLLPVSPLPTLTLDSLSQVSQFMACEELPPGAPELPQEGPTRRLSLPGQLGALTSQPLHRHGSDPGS

In the case of `NC(=O)Cn1cc(-c2cc(OCCC34CC5CC(CC(O)(C5)C3)C4)cc3c2-c2ccccc2[C@]3(O)C(F)(F)F)cn1` [Compound (A), 2-(4-{(9R)-9-Hydroxy-2-[2-(3-hydroxyadamantan-1-yl)ethoxy]-9-(trifluoromethyl)-9H-fluoren-4-yl}-1H-pyrazol-1-yl)acetamide], the half-maximal inhibitory concentration (IC50) (in general, the point on the concentration scale where inhibition reaches its midpoint) at 10 min is more than 10 µM.
